Source: patent US9249131B2, “Modulators of ATP-binding cassette transporters” (Vertex Pharmaceuticals Incorporated, priority 2003, dated 2016)

Target: T1, ΔF508-CFTR (Homo sapiens, UniProt P13569, DEL508-508)
T1 construct: expressed in transfected cells; host or cells: NIH3T3 mouse fibroblasts stably expressing ΔF508-CFTR for the optical, whole-cell and single-channel assays; Fisher rat epithelial (FRT) cells for Ussing chamber follow-up
Assay: Assays for ΔF508-CFTR correction and potentiator properties (membrane potential optical and electrophysiological methods)
Assay type: cell-based
Conditions: CFTR modulation; for % Activity: % Efficacy; for EC50: tested using the above methods
Excerpt: Assays for Detecting and Measuring ΔF508-CFTR Correction and Potentiator Properties of Compounds
A) Membrane Potential Optical Methods for Assaying ΔF508-CFTR Modulation Properties of Compounds
The optical membrane potential assay utilized voltage-sensitive FRET sensors described by Gonzalez and Tsien (See, Gonzales, J. E. and R. Y. Tsien (1995) “Voltage sensing by fluorescence resonance energy transfer in single cells” Biophys J 69 (4): 1272-80, and Gonzalez, J. E. and R. Y. Tsien (1997) “Improved indicators of cell membrane potential that use fluorescence resonance energy transfer” Chem Biol 4 (4): 269-77) in combination with instrumentation for measuring fluorescence changes such as the Voltage/Ion Probe Reader (VIPR) (See, Gonzalez, J. E., K. Oades, et al. (1999) “Cell-based assays and instrumentation for screening ion-channel targets” Drug Discov Today 4 (9): 431-439).
These voltage sensitive assays are based on the change in fluorescence resonant energy transfer (FRET) between the membrane-soluble, voltage-sensitive dye, DiSBAC2 (3), and a fluorescent phospholipid, CC2-DMPE, which is attached to the outer leaflet of the plasma membrane and acts as a FRET donor. Changes in membrane potential (Vm) cause the negatively charged DiSBAC2(3) to redistribute across the plasma membrane and the amount of energy transfer from CC2-DMPE changes accordingly. The changes in fluorescence emission were monitored using VIPR™ II, which is an integrated liquid handler and fluorescent detector designed to conduct cell-based screens in 96- or 384-well microtiter plates.
To identify small molecules that correct the trafficking defect associated with ΔF508-CFTR; a single-addition HTS assay format was developed. The cells were incubated in serum-free medium for 16 hrs at 37° C. in the presence or absence (negative control) of test compound. As a positive control, cells plated in 384-well plates were incubated for 16 hrs at 27° C. to “temperature-correct” ΔF508-CFTR. The cells were subsequently rinsed 3× with Krebs Ringers solution and loaded with the voltage-sensitive dyes. To activate ΔF508-CFTR, […] and the CFTR potentiator, genistein ([…]), were added along with Cl^−-free medium to each well. The addition of Cl^−-free medium promoted Cl^− efflux in response to ΔF508-CFTR activation and the resulting membrane depolarization was optically monitored using the FRET-based voltage-sensor dyes.
To identify potentiators of ΔF508-CFTR, a double-addition HTS assay format was developed. During the first addition, a Cl^−-free medium with or without test compound was added to each well. After 22 sec, a second addition of Cl^−-free medium containing 2-10 µM forskolin was added to activate ΔF508-CFTR. The extracellular Cl^− concentration following both additions was 28 mM, which promoted Cl^− efflux in response to ΔF508-CFTR activation and the resulting membrane depolarization was optically monitored using the FRET-based voltage-sensor dyes.
• Bath Solution #1: (in mM) NaCl 160, KCl 4.5, CaCl2 2, MgCl2 1, HEPES 10, pH 7.4 with NaOH. • Chloride-free bath solution: Chloride salts in Bath Solution #1 are substituted with gluconate salts. • CC2-DMPE: Prepared as a 10 mM stock solution in DMSO and stored at −20° C. • DiSBAC2(3): Prepared as a 10 mM stock in DMSO and stored at −20° C. Cell Culture
NIH3T3 mouse fibroblasts stably expressing ΔF508-CFTR are used for optical measurements of membrane potential. The cells are maintained at 37° C. in 5% CO2 and 90% humidity in Dulbecco's modified Eagle's medium supplemented with 2 mM glutamine, 10% fetal bovine serum, 1×NEAA, β-ME, 1×pen/strep, and 25 mM HEPES in 175 cm^2 culture flasks. For all optical assays, the cells were seeded at 30,000/well in 384-well matrigel-coated plates and cultured for 2 hrs at 37° C. before culturing at 27° C. for 24 hrs. for the potentiator assay. For the correction assays, the cells are cultured at 27° C. or 37° C. with and without compounds for 16-24 hours.

T1 sequence (P13569 with tags, fused parts or gaps DEL508-508): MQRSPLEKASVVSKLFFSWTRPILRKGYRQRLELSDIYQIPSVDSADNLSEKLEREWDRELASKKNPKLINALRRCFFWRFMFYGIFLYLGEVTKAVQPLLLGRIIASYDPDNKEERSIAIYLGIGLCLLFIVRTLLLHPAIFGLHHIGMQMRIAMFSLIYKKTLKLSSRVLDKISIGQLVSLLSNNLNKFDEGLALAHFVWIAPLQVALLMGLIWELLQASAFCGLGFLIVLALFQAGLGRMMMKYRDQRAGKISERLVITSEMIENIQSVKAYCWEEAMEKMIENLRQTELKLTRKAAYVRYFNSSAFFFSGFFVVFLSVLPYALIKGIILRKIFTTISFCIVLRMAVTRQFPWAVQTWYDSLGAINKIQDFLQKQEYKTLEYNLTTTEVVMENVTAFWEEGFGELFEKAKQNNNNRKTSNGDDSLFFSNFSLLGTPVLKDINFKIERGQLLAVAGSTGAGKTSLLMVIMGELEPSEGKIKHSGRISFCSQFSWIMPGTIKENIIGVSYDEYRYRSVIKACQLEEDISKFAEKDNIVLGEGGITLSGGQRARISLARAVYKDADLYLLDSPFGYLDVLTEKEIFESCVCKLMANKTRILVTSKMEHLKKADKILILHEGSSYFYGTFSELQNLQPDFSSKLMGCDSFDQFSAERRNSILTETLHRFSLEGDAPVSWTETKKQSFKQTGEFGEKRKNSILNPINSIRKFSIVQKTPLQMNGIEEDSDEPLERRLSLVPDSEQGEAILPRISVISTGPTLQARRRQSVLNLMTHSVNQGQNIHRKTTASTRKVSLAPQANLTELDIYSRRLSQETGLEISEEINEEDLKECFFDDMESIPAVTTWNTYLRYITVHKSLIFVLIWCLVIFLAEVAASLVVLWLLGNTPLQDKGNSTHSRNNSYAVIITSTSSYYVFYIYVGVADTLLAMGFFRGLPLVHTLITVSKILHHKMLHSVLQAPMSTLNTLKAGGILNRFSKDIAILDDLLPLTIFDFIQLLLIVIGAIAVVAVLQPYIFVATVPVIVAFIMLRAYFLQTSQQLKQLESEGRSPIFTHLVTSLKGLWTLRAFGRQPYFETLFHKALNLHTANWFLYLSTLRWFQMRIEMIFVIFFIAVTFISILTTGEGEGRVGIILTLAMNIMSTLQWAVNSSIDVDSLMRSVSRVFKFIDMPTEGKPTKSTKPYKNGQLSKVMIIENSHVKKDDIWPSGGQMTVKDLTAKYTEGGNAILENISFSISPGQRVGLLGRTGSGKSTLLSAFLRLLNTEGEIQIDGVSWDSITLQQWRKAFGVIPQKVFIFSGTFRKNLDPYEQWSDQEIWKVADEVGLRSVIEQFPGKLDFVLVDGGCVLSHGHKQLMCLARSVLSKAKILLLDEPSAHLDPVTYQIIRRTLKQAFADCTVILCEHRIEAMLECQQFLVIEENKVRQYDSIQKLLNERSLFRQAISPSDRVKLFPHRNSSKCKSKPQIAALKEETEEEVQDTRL

Row | SMILES | % Activity | EC50
1 | CCCC(=O)Nc1ncc(Cc2ccccc2Cl)s1 [compound 210] | ++ (“++” means between 25% to 100%) | 10 to 25 µM
2 | CN(C1CCCCC1)C(C(=O)Nc1ncc(Cc2ccccc2Cl)s1)c1ccccc1 (stereo not drawn) [compound 240] | ++ (“++” means between 25% to 100%) | < 10 µM
3 | O=C(Cc1ccccc1)Nc1ncc(Cc2cccc(Cl)c2)s1 [compound 31] | ++ (“++” means between 25% to 100%) | < 10 µM
4 | CCOC(=O)c1csc(NC(=O)C(c2ccccc2)c2ccccc2)n1 [compound 280] | ++ (“++” means between 25% to 100%) | < 10 µM
5 | O=C(Nc1ncc(Cc2cccc(Cl)c2)s1)C(c1ccc(Cl)cc1)c1ccc(Cl)cc1 [compound 125] | ++ (“++” means between 25% to 100%) | < 10 µM
6 | O=C(Nc1ncc(Cc2ccccc2Cl)s1)C1CCCCC1 [compound 29] | ++ (“++” means between 25% to 100%) | < 10 µM
7 | CCCCC(=O)Nc1nc(-c2cc(C)ccc2C)cs1 [compound 3] | ++ (“++” means between 25% to 100%) | 10 to 25 µM
8 | O=C(Nc1nc(-c2ccccc2)c(-c2ccccc2)s1)C1CCCO1 (stereo not drawn) [compound 115] | +++ (“+++” means >100%) | < 10 µM
9 | COc1ccccc1-c1csc(NC(=O)c2ccc(C)cc2)n1 [compound 4] | ++ (“++” means between 25% to 100%) | < 10 µM
10 | O=C(Nc1ncc(Cc2cccc(Cl)c2)s1)C(c1ccccc1)c1ccccc1 [compound 124] | ++ (“++” means between 25% to 100%) | < 10 µM
11 | Cc1cccc(C(=O)Nc2nc(-c3ccccc3Cl)cs2)c1 [compound 228] | ++ (“++” means between 25% to 100%) | 10 to 25 µM
12 | O=C(Nc1ncc(Cc2ccccc2)s1)C1c2ccccc2Oc2ccccc21 [compound 89] | +++ (“+++” means >100%) | < 10 µM
13 | CCC(C(=O)Nc1nc(-c2ccccc2)c(-c2ccccc2)s1)c1ccccc1 (stereo not drawn) [compound 173] | ++ (“++” means between 25% to 100%) | < 10 µM
14 | O=C(Cc1ccccc1)Nc1ncc(Cc2ccccc2)s1 [compound 32] | ++ (“++” means between 25% to 100%) | 10 to 25 µM
15 | O=C(Nc1ncc(Cc2ccccc2Cl)s1)C(c1ccccc1)N1CCC(O)CC1 (stereo not drawn) [compound 248] | ++ (“++” means between 25% to 100%) | < 10 µM
16 | Cc1ccc(-c2nc(NC(=O)c3ccc(C#N)cc3)sc2-c2ccccc2)cc1 [compound 45] | ++ (“++” means between 25% to 100%) | 10 to 25 µM
17 | COc1ccc(C(=O)Nc2nc(-c3ccccc3OC)cs2)cc1 [compound 6] | ++ (“++” means between 25% to 100%) | 10 to 25 µM
18 | O=C(Nc1nc(-c2ccccc2Cl)cs1)c1ccccc1 [compound 159] | ++ (“++” means between 25% to 100%) | < 10 µM
19 | O=C(Nc1ncc(Cc2ccccc2Cl)s1)c1ccccc1Cl [compound 19] | ++ (“++” means between 25% to 100%) | 10 to 25 µM
20 | CCC(C(=O)Nc1nc2ccc(S(C)(=O)=O)cc2s1)c1ccccc1 (stereo not drawn) [compound 264] | ++ (“++” means between 25% to 100%) | 25 to 60 µM

Other lines, results leading:

Row | % Activity | EC50 | SMILES
21 | ++ (“++” means between 25% to 100%) | < 10 µM | CCC(C(=O)Nc1ncc(Cc2ccc(Cl)cc2)o1)c1ccccc1 (stereo not drawn) [compound 146]
22 | +++ (“+++” means >100%) | < 10 µM | COc1ccccc1Cc1cnc(NC(=O)C(C)(C)c2ccccc2)s1 [compound 237]
23 | ++ (“++” means between 25% to 100%) | < 10 µM | CCC(C)C(C(=O)Nc1ncc(Cc2ccccc2C#N)s1)c1ccccc1 (stereo not drawn) [compound 259]
24 | ++ (“++” means between 25% to 100%) | < 10 µM | CCC(C(=O)Nc1ncc(Cc2cccnc2OC)s1)c1ccccc1 (stereo not drawn) [compound 283]
25 | ++ (“++” means between 25% to 100%) | < 10 µM | CC[C@@H](C(=O)Nc1ncc(Cc2cccc(Cl)c2)s1)c1ccccc1 [compound 203]
26 | +++ (“+++” means >100%) | < 10 µM | CCC(C)C(C(=O)Nc1ncc(Cc2ccccc2Cl)s1)c1ccccc1 (stereo not drawn) [compound 99]
27 | ++ (“++” means between 25% to 100%) | < 10 µM | O=C(Cc1ccccc1)Nc1ncc(Cc2cccc(Cl)c2)o1 [compound 157]
28 | ++ (“++” means between 25% to 100%) | < 10 µM | CCC(C(=O)Nc1ncc(Cc2ccccc2OC)s1)c1ccc(OC)cc1 (stereo not drawn) [compound 273]
29 | +++ (“+++” means >100%) | 10 to 25 µM | COc1ccccc1-c1csc(NC(=O)c2ccccc2)n1 [compound 69]
30 | +++ (“+++” means >100%) | < 10 µM | CC[C@@H](C(=O)Nc1ncc(Cc2ccccc2Cl)s1)c1ccccc1 [compound 201]
31 | ++ (“++” means between 25% to 100%) | < 10 µM | O=C(Nc1ncc(Cc2ccccc2)o1)C(c1ccccc1)C1CCCCC1 (stereo not drawn) [compound 92]
32 | +++ (“+++” means >100%) | 10 to 25 µM | CCc1ccccc1OCC(=O)Nc1nc2ccccc2s1 [compound 63]
33 | ++ (“++” means between 25% to 100%) | 10 to 25 µM | CCC(C)C(C(=O)Nc1ncc(Cc2ccccc2OC)o1)c1ccccc1 (stereo not drawn) [compound 184]
34 | +++ (“+++” means >100%) | < 10 µM | CN(C)C(Cc1ccccc1)C(=O)Nc1ncc(Cc2ccccc2Cl)s1 (stereo not drawn) [compound 272]
35 | ++ (“++” means between 25% to 100%) | 10 to 25 µM | COC(C(=O)Nc1ncc(Cc2ccccc2Cl)s1)c1ccccc1 (stereo not drawn) [compound 216]
36 | +++ (“+++” means >100%) | < 10 µM | CCC(C(=O)Nc1ncc(Cc2cccc(Cl)c2)s1)c1ccccc1 (stereo not drawn) [compound 128]
37 | ++ (“++” means between 25% to 100%) | 10 to 25 µM | O=C(Nc1ncc(Cc2ccccc2Cl)s1)C(c1ccccc1)N1CCOCC1 (stereo not drawn) [compound 214]
38 | ++ (“++” means between 25% to 100%) | < 10 µM | CC[C@H](C(=O)Nc1ncc(Cc2ccc(Cl)cc2)s1)c1ccccc1 [compound 205]
39 | +++ (“+++” means >100%) | < 10 µM | CC1CCCN(C(C(=O)Nc2ncc(Cc3ccccc3Cl)s2)c2ccccc2)C1 (stereo not drawn) [compound 243]
40 | ++ (“++” means between 25% to 100%) | 10 to 25 µM | CCNC(C(=O)Nc1ncc(Cc2ccccc2Cl)s1)c1ccccc1 (stereo not drawn) [compound 213]
41 | ++ (“++” means between 25% to 100%) | 25 to 60 µM | COc1ccccc1Cc1cnc(NC(=O)C(Cc2ccccc2)N(C)C)s1 (stereo not drawn) [compound 275]
42 | ++ (“++” means between 25% to 100%) | 10 to 25 µM | COc1ccccc1Cc1cnc(NC(=O)C(c2ccccc2)c2ccccc2)o1 [compound 180]
43 | ++ (“++” means between 25% to 100%) | < 10 µM | CC(C)C(C(=O)Nc1ncc(Cc2ccccc2C#N)s1)c1ccccc1 (stereo not drawn) [compound 261]
44 | ++ (“++” means between 25% to 100%) | < 10 µM | CCC(C(=O)Nc1nc2cccc(C)c2s1)c1ccccc1 (stereo not drawn) [compound 268]
45 | ++ (“++” means between 25% to 100%) | < 10 µM | CCC(C(=O)Nc1ncc(Cc2cc(F)ccc2OC)s1)c1ccccc1 (stereo not drawn) [compound 285]
